This assay deals with CD2F1 mice, P388/ADR leukemia ip, median survival T/C. Put plainly: NCI In Vivo Anticancer Drug Screen. Data for tumor model P388 Leukemia resistant to Adriamycin; NSC 123127, Developed at Scr 08 (intraperitoneal) in CD2F1 (CDF1) mice. To be noted: endpoint: median survival time, higher = longer survival. Here is the method:
The antitumor activity of compounds was measured in mice bearing transplantable tumors. Survival or tumor size were measured and the results are expressed as the measurement made in the treated group (T) divided by the measurement made in the vehicle treated control group (C). The tumor model used in this assay is P388 Leukemia resistant to Adriamycin; NSC 123127, Developed at Scr 08 (intraperitoneal) in CD2F1 (CDF1) mice

Where [1] appears, read: dose: 12.5 mg/kg/injection, schedule: Q01DX005 (ip), vehicle: Klucel (hydroxypropylcellulose) (HPC).
Setting [2] is: dose: 25.0 mg/kg/injection, schedule: Q01DX005 (ip), vehicle: Klucel (hydroxypropylcellulose) (HPC).
The mark [3] stands for this setting: dose: 100.0 mg/kg/injection, schedule: Q01DX005 (ip), vehicle: Klucel (hydroxypropylcellulose) (HPC).
The mark [4] stands for this setting: dose: 12.5 mg/kg/injection, schedule: Q01DX005 (ip), vehicle: saline with Tween-80.
Setting [5] is: dose: 25.0 mg/kg/injection, schedule: Q01DX005 (ip), vehicle: saline with Tween-80.
The mark [6] stands for this setting: dose: 50.0 mg/kg/injection, schedule: Q01DX005 (ip), vehicle: saline with Tween-80.
The mark [7] stands for this setting: dose: 67.0 mg/kg/injection, schedule: Q01DX009 (ip), vehicle: saline.
The mark [8] stands for this setting: dose: 150.0 mg/kg/injection, schedule: Q01DX009 (ip), vehicle: saline.

Values joined by “and” are separate entries in the source; they are usually repeats but may differ in a detail not shown here. Equal entries are not always repeated. Inconclusive results and toxic doses are left out.

As for `[N-]=[N+]=CC(=O)CCC(NC(=O)OCc1ccccc1)C(=O)OCc1ccccc1` (stereo unspecified), the T/C by setting is: under setting [1], 115 % of control; under setting [2], 117 % of control; (dose: 36.0 mg/kg/injection, schedule: Q01DX005 (ip), vehicle: Klucel (hydroxypropylcellulose) (HPC)) 100 % of control; (dose: 60.0 mg/kg/injection, schedule: Q01DX005 (ip), vehicle: Klucel (hydroxypropylcellulose) (HPC)) 112 % of control; under setting [3], 166 % of control; (dose: 200.0 mg/kg/injection, schedule: Q01DX005 (ip), vehicle: Klucel (hydroxypropylcellulose) (HPC)) 165 % of control. Besides, the T/C (dose: 278.0 mg/kg/injection, schedule: Q01DX005 (ip), vehicle: Klucel (hydroxypropylcellulose) (HPC)) is 155 % of control.

Regarding `c1ccc(OCC2CO2)c(OCC2CO2)c1` (stereo unspecified), the T/C is, setting by setting: (dose: 60.0 mg/kg/injection, schedule: Q01DX005 (ip), vehicle: saline with Tween-80) 171 % of control; (dose: 120.0 mg/kg/injection, schedule: Q01DX005 (ip), vehicle: saline with Tween-80) 164 % of control and 167 % of control; (dose: 240.0 mg/kg/injection, schedule: Q01DX005 (ip), vehicle: saline with Tween-80) 252 % of control.

As for `Cc1c2ccncc2c(C)c2c1[nH]c1ccccc12`, the T/C by setting is: (dose: 90.0 mg/kg/injection, schedule: Q04DX002 (ip), vehicle: saline with Tween-80) 115 % of control; (dose: 134.0 mg/kg/injection, schedule: Q04DX002 (ip), vehicle: saline with Tween-80) 156 % of control; (dose: 200.0 mg/kg/injection, schedule: Q04DX002 (ip), vehicle: saline with Tween-80) 168 % of control; (dose: 300.0 mg/kg/injection, schedule: Q04DX002 (ip), vehicle: saline with Tween-80) 153 % of control.

Consider `COc1ccc(C(C)c2cc3c(cc2OC)OCO3)cc1` (stereo unspecified), for which the T/C is 105 % of control under setting [4], 109 % of control under setting [5] and 119 % of control under setting [6].

As to `O=C(O)Cc1cccc2c(=O)cc(-c3ccccc3)oc12`, the T/C by setting is: (dose: 24.12 mg/kg/injection, schedule: Q01DX005 (ip), vehicle: saline) 102 % of control; (dose: 30.0 mg/kg/injection, schedule: Q01DX009 (ip), vehicle: saline) 114 % of control; (dose: 30.0 mg/kg/injection, schedule: Q01DX009 (ip), vehicle: sodium bicarbonate) 124 % of control; (dose: 40.2 mg/kg/injection, schedule: Q01DX005 (ip), vehicle: saline) 118 % of control; (dose: 44.0 mg/kg/injection, schedule: Q01DX009 (ip), vehicle: sodium bicarbonate) 167 % of control; (dose: 60.0 mg/kg/injection, schedule: Q04DX002 (ip), vehicle: sodium bicarbonate) 118 % of control. For the same molecule, the T/C was 187 % of control under setting [7]; 187 % of control and 237 % of control and 245 % of control (dose: 67.0 mg/kg/injection, schedule: Q01DX009 (ip), vehicle: sodium bicarbonate); 118 % of control (dose: 90.0 mg/kg/injection, schedule: Q04DX002 (ip), vehicle: sodium bicarbonate); 207 % of control and 240 % of control and 291 % of control (dose: 100.0 mg/kg/injection, schedule: Q01DX009 (ip), vehicle: sodium bicarbonate); 161 % of control (dose: 111.67 mg/kg/injection, schedule: Q01DX005 (ip), vehicle: saline); 112 % of control (dose: 134.0 mg/kg/injection, schedule: Q04DX002 (ip), vehicle: sodium bicarbonate). Further, the T/C under setting [8] was 104 % of control; the T/C (dose: 150.0 mg/kg/injection, schedule: Q01DX009 (ip), vehicle: sodium bicarbonate) is 233 % of control and 260 % of control and 124 % of control; the T/C (dose: 175.0 mg/kg/injection, schedule: Q01DX009 (ip), vehicle: sodium bicarbonate) was 103 % of control; the T/C (dose: 186.12 mg/kg/injection, schedule: Q01DX005 (ip), vehicle: saline) is 164 % of control.

As to `COc1cccc2c1C(CO)N1C(C#N)C3CC(C(=O)O)C(C1C2)N3C` (stereo unspecified), the T/C is, setting by setting: (dose: 0.78 mg/kg/injection, schedule: Q01DX005 (ip), vehicle: suspension in saline) 186 % of control; (dose: 1.57 mg/kg/injection, schedule: Q01DX005 (ip), vehicle: suspension in saline) 280 % of control; (dose: 3.12 mg/kg/injection, schedule: Q01DX005 (ip), vehicle: saline) 200 % of control; (dose: 3.13 mg/kg/injection, schedule: Q01DX005 (ip), vehicle: suspension in saline) 224 % of control; (dose: 6.25 mg/kg/injection, schedule: Q01DX005 (ip), vehicle: saline) 248 % of control; (dose: 6.25 mg/kg/injection, schedule: Q01DX005 (ip), vehicle: suspension in saline) 271 % of control. Besides, the T/C runs as follows: (dose: 12.5 mg/kg/injection, schedule: Q01DX005 (ip), vehicle: saline) 266 % of control; (dose: 12.5 mg/kg/injection, schedule: Q01DX005 (ip), vehicle: suspension in saline) 214 % of control; (dose: 25.0 mg/kg/injection, schedule: Q01DX005 (ip), vehicle: saline) 272 % of control; (dose: 25.0 mg/kg/injection, schedule: Q01DX005 (ip), vehicle: suspension in saline) 252 % of control.

As to `O=C1C=CC2OC(c3ccccc3)C(O)C2O1` (stereo unspecified), the T/C reads like this: (dose: 6.25 mg/kg/injection, schedule: Q01DX005 (ip), vehicle: saline with Tween-80) 101 % of control; under setting [4], 114 % of control; under setting [6], 119 % of control.

Regarding `CN1CCN(c2ccc3nc(-c4ccc5nc(-c6ccc(O)cc6)[nH]c5c4)[nH]c3c2)CC1`, the T/C by setting is: (dose: 44.0 mg/kg/injection, schedule: Q01DX009 (ip), vehicle: saline) 118 % of control; under setting [7], 109 % of control; (dose: 100.0 mg/kg/injection, schedule: Q01DX009 (ip), vehicle: saline) 105 % of control; under setting [8], 103 % of control.

With `COc1cc(NCc2ccc3nc(N)nc(N)c3c2C)cc(OC)c1OC`, the T/C is, setting by setting: (dose: 18.0 mg/kg/injection, schedule: Q01DX009 (ip), vehicle: distilled water + Tween-80) 112 % of control; (dose: 27.0 mg/kg/injection, schedule: Q01DX009 (ip), vehicle: distilled water + Tween-80) 118 % of control; (dose: 40.0 mg/kg/injection, schedule: Q01DX009 (ip), vehicle: distilled water + Tween-80) 156 % of control; (dose: 60.0 mg/kg/injection, schedule: Q01DX009 (ip), vehicle: distilled water + Tween-80) 184 % of control; (dose: 110.0 mg/kg/injection, schedule: Q01DX009 (ip), vehicle: distilled water + Tween-80) 94 % of control.

Take `N=C(N)c1ccc(N=NNc2ccc(C(=N)N)cc2)cc1`: the T/C reads like this: under setting [4], 105 % of control; under setting [5], 115 % of control; under setting [6], 117 % of control.

Consider `CCOC1NC(=O)Oc2ccccc21` (stereo unspecified), for which the T/C is 101 % of control (dose: 3.12 mg/kg/injection, schedule: Q01DX005 (ip), vehicle: Klucel (hydroxypropylcellulose) (HPC)); 100 % of control (dose: 6.25 mg/kg/injection, schedule: Q01DX005 (ip), vehicle: Klucel (hydroxypropylcellulose) (HPC)); 94 % of control under setting [1]; 87 % of control and 101 % of control and 104 % of control under setting [2]; 88 % of control and 110 % of control (dose: 50.0 mg/kg/injection, schedule: Q01DX005 (ip), vehicle: Klucel (hydroxypropylcellulose) (HPC)); 108 % of control (dose: 72.0 mg/kg/injection, schedule: Q01DX005 (ip), vehicle: Klucel (hydroxypropylcellulose) (HPC)). Also, the T/C under setting [3] is 104 % of control and 118 % of control; the T/C (dose: 120.0 mg/kg/injection, schedule: Q01DX005 (ip), vehicle: Klucel (hydroxypropylcellulose) (HPC)) is 116 % of control; the T/C (dose: 333.0 mg/kg/injection, schedule: Q01DX005 (ip), vehicle: Klucel (hydroxypropylcellulose) (HPC)) was 153 % of control.

On to `O=NN(CCCl)C(=O)NCCCl`, for which the T/C runs as follows: (dose: 5.0 mg/kg/injection, schedule: Q01DX001 (ip), vehicle: saline + alcohol) 108 % of control and 123 % of control; (dose: 20.0 mg/kg/injection, schedule: Q01DX001 (ip), vehicle: saline + alcohol) 150 % of control and 195 % of control; (dose: 40.0 mg/kg/injection, schedule: Q01DX001 (ip), vehicle: saline + alcohol) 270 % of control and 309 % of control; (dose: 80.0 mg/kg/injection, schedule: Q01DX001 (ip), vehicle: saline + alcohol) 90 % of control.
